Results on six molecules are retold here after US20260217692A1 (Ascentage Pharma (Suzhou) Co., Ltd., priority 2023, published 2026).

Data set [1] in a line: Dynamic vapor sorption (DVS) hygroscopicity test. It counts as physicochemical. The note with it: for hygroscopic weight gain (DVS curve): 25° C. and 80% RH. The text has this:
In the present disclosure, the DVS test parameters are set as follows: [table]

Data set [2] in a line: Stability of crystal forms under stability test conditions (appearance, XRPD, HPLC). It counts as physicochemical. The note with it: for Total impurities: HPLC. On the procedure: The samples were placed under the stability conditions shown in the following table, sampling was performed at the corresponding time points, and the samples were subjected to appearance and XRPD tests. […] The stability results obtained are recorded in the following table. […] The samples were placed under the stability test conditions shown in the following table, sampling was performed at different time points, and the samples were subjected to the XRPD test. […] The samples were placed in an open state under the stability test conditions of 40° C./75% RH and 90% RH; and the samples were placed in a closed state at 60° C. in a light box (the test samples in the dark were placed in the same manner as the illumination test samples, and the treatment was performed in the dark). Sampling was performed at different time points, and the samples were subjected to the XRPD test. […] The samples were placed under the stability conditions shown in the following table, sampling was performed at the corresponding time points, and the samples were subjected to appearance and XRPD tests. […] The stability results obtained are recorded in the following table.

A short description of data set [3]: XRPD of residual solids in solubility test in biological media. It counts as physicochemical. To be noted: Water; 37° C.
Data set [4] in a line: Solubility in biological media at 37° C. (HPLC, pH).
For data set [5], the system named is multiple xenograft tumor models. The note with it: cited from earlier work.
The test system of data set [6] is preclinical tumor model. To be noted: preclinical tumor model studies; cited from earlier work.
In data set [7] the test system is EGFRT790M-mutant NSCLC xenograft tumor models. To be noted: cited from earlier work.
The conditions of data set [8]: in vivo; cited from earlier work.
Data set [9] in a line: Polymorph screening test, suspension method (crystal form by XRPD after stirring in solvent). It is filed as physicochemical. On the procedure:
(or 50° C.) for 3 days in the dark and centrifuged to remove the supernatant; the resulting precipitate was dried under vacuum (25° C., −0.1 MPa); and the resulting solid was collected and subjected to the XRPD test. The results are as follows:
(or 50° C./80° C.) for 3 days in the dark and centrifuged to remove the supernatant; and the resulting precipitate was dried under vacuum (25° C., −0.1 MPa).
(or 50° C.) for 3 days in the dark and centrifuged to remove the supernatant; and the resulting precipitate was dried under vacuum (25° C., −0.1 MPa).

Where [10] appears, read: Illumination (1 ICH), 5 d and 10 d.
The mark [11] stands for this setting: 0 d, listed as Crystal form D of the compound represented by formula I.

Where “and” joins values, the source holds several entries; their conditions need not be identical. Equal values may be shown once. Where a name gives a salt, the structure may show the parent alone.

For the molecule `Cc1cc(Nc2ncc(Cl)c(Nc3ccccc3S(=O)(=O)C(C)C)n2)c(OC(C)C)cc1C1=CCN(C2CCOCC2)CC1.Cl`, the “hygroscopic weight gain (DVS curve)” value in [1] is listed as 0.15%. The Appearance result in data set [2] (0 d) is reported as “Pale yellow powder”; in [2] (40° C./75% RH, 30 d) it was “Color deepening”; in [2] (90% RH, 30 d), “Color deepening”; in data set [2] (setting [10]) it was “Color deepening”. Further, the Total impurities is 0.10% in data set [2] (0 d); 0.18% in [2] (40° C./75% RH, 5 d); 0.53% in data set [2] (40° C./75% RH, 10 d); 1.09% in data set [2] (40° C./75% RH, 30 d); 0.15% in data set [2] (60° C., 5 d); 0.23% in data set [2] (60° C., 10 d). Moreover, the Total impurities in data set [2] (60° C., 30 d) was found to be 0.21%; in data set [2] (90% RH, 5 d), 0.17%; in data set [2] (90% RH, 10 d), 0.28%; in [2] (90% RH, 30 d) it was 0.41%; in data set [2] (Illumination (1 ICH), 5 d) it was 0.39%; in [2] (Illumination (1 ICH), 10 d) it was 0.51%. The Total impurities came out at 0.07% in [2] (In the dark, 5 d) and 0.16% in data set [2] (In the dark, 10 d).

Turning to Maleate, the “XRPD results of residual solids” value in data set [3] is recorded as “Crystal form A”. The Solubility – broadly, the dissolved amount per volume that the medium holds – in data set [4] (FaSSIF-V2, 2 h) is 20 µg/mL; in data set [4] (FaSSIF-V2, 24 h), “<LOQ”; in data set [4] (FeSSIF-V2, 2 h) it was 220 µg/mL; in data set [4] (FeSSIF-V2, 24 h), 220 µg/mL; in data set [4] (SGF, 2 h), 1390 µg/mL; in data set [4] (SGF, 24 h), 1920 µg/mL. The Solubility in data set [4] (Water, 2 h) was 20 µg/mL; in data set [4] (Water, 24 h), 20 µg/mL.

Regarding `Cc1cc(Nc2ncc(Cl)c(Nc3ccccc3S(=O)(=O)C(C)C)n2)c(OC(C)C)cc1C1=CCN(C2CCOCC2)CC1` [APG-2449], the anti-tumor activity result in data set [5] is listed as “exhibits anti-tumor activity”. Also, the “resistance developed by the first-generation ALK inhibitor” value in data set [6] is recorded as “can overcome resistance”. Further, in data set [7], the “effect in combination with EGFR inhibitors (particularly AZD9291/osimertinib)” value was “synergistic effect”. Besides, in data set [8], the oral bioavailability entry is “high oral bioavailability”.

In the case of `Cc1cc(Nc2ncc(Cl)c(Nc3ccccc3S(=O)(=O)C(C)C)n2)c(OC(C)C)cc1C1=CCN(C2CCOCC2)CC1` [one equivalent of succinate crystal form D], the “hygroscopic weight gain (DVS curve)” value in data set [1] was 0.19±0.005% and 0.19%. Also, the “stability of crystal form in solvents, succinate polymorph screening test” value in [9] (in solvents) was “relatively good stability”. Besides, the “crystal form when stirred in solvent” value in data set [9] (methanol, ethanol, acetonitrile, acetone, ethyl acetate, dichloromethane, water, n-heptane, dioxane, or mixed solvent of methanol, acetonitrile, or acetone with water, 40° C.) is on record as “remained stable”. In addition, the Total impurities is on record as 0.73% in data set [2] (0 d); 0.74% in data set [2] (40° C./75% RH, 1 M); 0.74% in data set [2] (40° C./75% RH, 10 d); 0.71% in data set [2] (60° C., 1 M); 0.69% in [2] (60° C., 10 d); 0.96% in data set [2] (90% RH, 1 M). For the same molecule, the Total impurities in [2] (90% RH, 10 d) is 0.73%; in [2] (Illumination, 5 d), 0.86%; in data set [2] (Illumination, 10 d), 0.98%. For the same molecule, the Appearance result in data set [2] (Illumination, 5 d and 10 d) is “Color deepening”.

With `Cc1cc(Nc2ncc(Cl)c(Nc3ccccc3S(=O)(=O)C(C)C)n2)c(OC(C)C)cc1C1=CCN(C2CCOCC2)CC1` [one equivalent of maleate crystal form A], in data set [1], the “hygroscopic weight gain (DVS curve)” value was 0.11±0.005% and 0.11%. Besides, in data set [1] (80% RH), the “hygroscopicity (DVS result in words)” value is “no hygroscopicity”. Further, the “crystal form before and after the hygroscopic test” value in [1] (DVS) is reported as “did not change”. In addition, the “stability of crystal form in solvent, suspension method” value in [9] (ethanol, isopropanol, acetone, ethyl acetate, isopropyl acetate, methyl tert-butyl ether, dichloromethane, tetrahydrofuran, toluene, n-heptane, dioxane, methyl acetate, 2-methyltetrahydrofuran, cyclohexane, n-hexane, methyl ethyl ketone, or methyl isobutyl ketone) is given as “relatively good stability”. Moreover, the “crystal form when stirred in solvent” value in [9] (same solvents as in b585 at 25-50° C.) is reported as “remained stable”. In addition, the Appearance result is on record as “Pale yellow powder” in data set [2] (0 d) and “Color deepening” in data set [2] (setting [10]). Moreover, the “Crystal form (XRPD)” value in data set [2] (0 d) is “Maleate crystal form A”; in data set [2] (40° C./75% RH, 5 d, 10 d and 30 d) it was “Maleate crystal form A”; in data set [2] (60° C., 5 d, 10 d and 30 d), “Maleate crystal form A”; in data set [2] (90% RH, 5 d, 10 d and 30 d) it was “Maleate crystal form A”; in data set [2] (setting [10]) it was “Maleate crystal form A”; in data set [2] (In the dark, 5 d and 10 d) it was “Maleate crystal form A”. Also, the Total impurities in [2] (0 d) worked out at 0.12%; in data set [2] (40° C./75% RH, 5 d) it was 0.16%; in [2] (40° C./75% RH, 10 d), 0.14%; in data set [2] (40° C./75% RH, 30 d), 0.29%; in [2] (60° C., 5 d) it was 0.16%; in data set [2] (60° C., 10 d), 0.21%. Also, the Total impurities in data set [2] (60° C., 30 d) came out at 0.16%; in [2] (90% RH, 5 d), 0.14%; in [2] (90% RH, 10 d) it was 0.25%; in data set [2] (90% RH, 30 d) it was 0.26%; in data set [2] (Illumination (1 ICH), 5 d) it was 0.26%; in [2] (Illumination (1 ICH), 10 d), 0.65%. Further, the Total impurities in data set [2] (In the dark, 5 d) stood at 0.12%; in data set [2] (In the dark, 10 d), 0.18%.

Regarding `Cc1cc(Nc2ncc(Cl)c(Nc3ccccc3S(=O)(=O)C(C)C)n2)c(OC(C)C)cc1C1=CCN(C2CCOCC2)CC1` [crystal form D], the “hygroscopic weight gain (DVS curve)” value in [1] was 0.14±0.005% and 0.14%. The XRPD entry in [2] (0 d) is listed as “No significant change”; in data set [2] (25° C./60% RH, 10 d and 1 M), “No significant change”; in data set [2] (40° C./75% RH, 10 d and 1 M), “No significant change”; in data set [2] (60° C., 10 d and 1 M) it was “No significant change”; in [2] (90% RH, 10 d and 1 M), “No significant change”; in data set [2] (Illumination, 5 d and 10 d) it was “No significant change”. The XRPD result in [2] (In the dark, 5 d and 10 d) is on record as “No significant change”. The Total impurities in data set [2] (setting [11]) amounted to 0.14%; in [2] (25° C./60% RH, 1 M), 0.17%; in data set [2] (25° C./60% RH, 10 d), 0.14%; in data set [2] (40° C./75% RH, 1 M, listed as Crystal form D of the compound represented by formula I), 0.17%; in [2] (40° C./75% RH, 10 d, listed as Crystal form D of the compound represented by formula I), 0.17%; in [2] (60° C., 1 M, listed as Crystal form D of the compound represented by formula I) it was 0.20%. For the same molecule, the Total impurities is on record as 0.17% in data set [2] (60° C., 10 d, listed as Crystal form D of the compound represented by formula I); 0.17% in data set [2] (90% RH, 1 M, listed as Crystal form D of the compound represented by formula I); 0.17% in data set [2] (90% RH, 10 d, listed as Crystal form D of the compound represented by formula I); 0.17% in [2] (Illumination, 5 d, listed as Crystal form D of the compound represented by formula I); 2.43% in [2] (Illumination, 10 d, listed as Crystal form D of the compound represented by formula I); 0.17% in data set [2] (In the dark, 5 d, listed as Crystal form D of the compound represented by formula I). In [2] (In the dark, 10 d, listed as Crystal form D of the compound represented by formula I), this molecule gave a Total impurities of 0.14%. The Appearance result is given as “No significant change” in data set [2] (setting [11]); “No significant change” in [2] (25° C./60% RH, 10 d and 1 M); “No significant change” in data set [2] (40° C./75% RH, 10 d and 1 M, listed as Crystal form D of the compound represented by formula I); “No significant change” in data set [2] (60° C., 10 d and 1 M, listed as Crystal form D of the compound represented by formula I); “No significant change” in [2] (90% RH, 10 d and 1 M, listed as Crystal form D of the compound represented by formula I); “Color deepening” in data set [2] (Illumination, 5 d and 10 d). Further, in data set [2] (In the dark, 5 d and 10 d, listed as Crystal form D of the compound represented by formula I), the Appearance result is reported as “No significant change”.
